Patent US4497816A, “7-(4-Pyridyl)-1,8-naphthyridine derivatives and their antibacterial compositions” (Dainippon Pharmaceutical Co., Ltd., priority 1982, dated 1985)
≈ marks a conversion by molar mass, not a printed value.

Columns and labels:
[1] = tested on: Staphylococcus aureus No. 50774; assay: In vitro antibacterial activity (MIC), agar dilution method; assay type: cell-based
Protocol: (§1) *^3 In vitro antibacterial activity
(§2) The minimum inhibitory concentrations (MIC:
(§3) μg/ml) shown in Table 1 were determined according
(§4) to the agar dilution method recommended by Japan
(§5) Society of Chemotherpy (1980)

Escherichia coli P-5101 [2] = assay: as above; assay type: cell-based; settings: P5101
Protocol: as §1, §2, §3, §4, §5

[3] = tested on: Pseudomonas aeruginosa No. 12; assay: as above; assay type: cell-based
Protocol: as §1, §2, §3, §4, §5

[4] = tested on: Staphylococcus aureus No. 50774; assay: In vivo efficacy against the systemic infections in mice (Staphylococcus aureus); design: species or system mice (male ddY); settings: 336 h; Staphylococcus aureus No. 50774, intravenous infection; oral, twice, about 5 minutes and 6 hours after infection; observed 14 days
Protocol: (§6) Compounds 1, A and NA were each suspended in a 0.2%
(§7) aqueous solution of sodium carboxymethylcellulose.
(§8) Each of the solutions was orally administered to
(§9) mice infected with each of the test organisms under
(§10) the conditions described below, and the median
(§11) effective dose (ED50) was calculated in accordance
(§12) with the Behrens-Kaerber method [Arch. Exp. Path.
(§13) Experimental conditions:
(§14) Mice: Male mice (ddY) weighing about 20 g
Staphylococcus aureus No. 50774
Intravenous infection with about 5 × 10^8
cells per mouse suspended in saline
Twice, about 5 minutes and 6 hours after
Staphylococcus aureus No. 50774-for 14 days

Escherichia coli P-5101 [5] = assay: In vivo efficacy against the systemic infections in mice (Escherichia coli); design: species or system mice (male ddY); settings: P5101; Escherichia coli P-5101, intraperitoneal infection; oral, twice, about 5 minutes and 6 hours after infection
Protocol: as §6, §7, §8, §9, §10, §11, §12, §13, §14
Escherichia coli P-5101
Intraperitoneal infection with about 9 × 10^6
(§15) cells per mouse suspended in trypto-soy
(§16) Twice, about 5 minutes and 6 hours after […]

[6] = tested on: Pseudomonas aeruginosa No. 12; assay: In vivo efficacy against the systemic infections in mice (Pseudomonas aeruginosa); design: species or system mice (male ddY); settings: Pseudomonas aeruginosa No. 12, intraperitoneal infection; oral, twice, about 5 minutes and 6 hours after infection
Protocol: as §6, §7, §8, §9, §10, §11, §12, §13, §14
Pseudomonas aeruginosa No. 12
Intraperitoneal infection with about 5 × 10^3
as §15, §16

[7] = Acute oral toxicity in mice; settings: mouse, in vivo, female mice (ddY), deaths counted after 7 days
Protocol: *^5 Acute oral toxicity in mice
A suspension containing compound 1 in various
concentrations was orally given to female mice
(ddY) at a volume of 0.1 ml per 10 g of body weight.
The number of dead mice was counted after 7 days,
and the value of median lethal dose (LD50) was
calculated in accordance with the Behrens-Kaerber

| SMILES | MIC [1] [µg/mL] | MIC (Escherichia coli P-5101 [2]) [µg/mL] | MIC [3] [µg/mL] | ED50 [4] [mg/kg] | ED50 (Escherichia coli P-5101 [5]) [mg/kg] | ED50 [6] [mg/kg] | LD50 at 168 h [7] [mg/kg] |
| --- | --- | --- | --- | --- | --- | --- | --- |
| CCn1cc(C(=O)O)c(=O)c2cc(F)c(-c3ccncc3)nc21 [Compound 1, 1-Ethyl-6-fluoro-1,4-dihydro-4-oxo-7-(4-pyridyl)-1,8-naphthyridine-3-carboxylic acid] | 0.2 (≈ 0.638 µM) | 0.2 (≈ 0.638 µM) | 3.13 (≈ 9.99 µM) | 2.84 | 3.1 | 12.2 | > 2000 |
| CCn1cc(C(=O)O)c(=O)c2ccc(-c3ccncc3)nc21 [Compound A, 1-ethyl-1,4-dihydro-4-oxo-7-(4-pyridyl)-1,8-naphthyridine-3-carboxylic acid] | 1.56 (≈ 5.28 µM) | 0.78 (≈ 2.64 µM) | 12.5 (≈ 42.3 µM) | 23.7 | 21 | > 100 |  |
| CCn1cc(C(=O)O)c(=O)c2ccc(C)nc21 [NA, 1-ethyl-1,4-dihydro-7-methyl-4-oxo-1,8-naphthyridine-3-carboxylic acid] | 50 (≈ 215 µM) | 3.13 (≈ 13.5 µM) | 200 (≈ 861 µM) | 767 |  | 267 |  |
